{
  "source": "patent US5866787A",
  "about": "“Transgenic plants co-expressing a functional human 2-5A system” (Cleveland Clinic Foundation, priority 1995, dated 1999)",
  "key": {"[1]": {"test_system": "recombinant human RNase L", "assay": "2-5A dependent ribonuclease L assay, poly(U) cleavage", "type": "biochemical", "conditions": "about 30° C. for about 2 hr", "method": "FIG. 25. Transgenic plants produce functional, human recombinant 2-5A synthetase. Extracts of plants containing cDNA to both human RNase L and 2-5A synthetase (lanes 8-11), of control plants that are transformed with vector alone (lanes 12-15), and of interferon treated human HeLa cells (lanes 16 and 17) are assayed for 2-5A synthetase activity. 2-5A synthetase activity in extracts of transgenic plants is determined by a functional assay for 2-5A. […] The total cell lysates are centrifuged at about 10,000×g for about 10 min at about 4° C., the supernatants are collected and the protein concentration is determined as described in Bradford, M. et al.: Anal. Biochem., 72:248 (1976). […] 2-5A is monitored by its ability to activate RNase L, which are expressed and isolated from insect cells, Dong, B. et al.: J. Biol. Chem., 269:14153 (1994), to cleave poly (U) to discrete products (arrows). […]\nTo determine if 2-5A synthetase is present in the transgenic tobacco plants, functional assays for the enzyme are performed. 2-5A synthetase activity in extracts of transgenic plants is determined by a functional assay for 2-5A. […] The total cell lysates are centrifuged at about 10,000×g for about 10 min at about 4° C., the supernatants are collected and the protein concentration is determined. […]"}, "RNase L [2]": {"test_system": "RNase L", "assay": "2-5A uptake by cut leaves, 18S rRNA northern blot", "type": "cell-based, transgenic plant expressing human RNase L", "conditions": "1 μM taken up by cut leaves for seven hours; not in control plant", "method": "FIG. 30 illustrates that RNase L in cut leaves is activated to cleave rRNA by incubation in a solution containing 2-5A. A northern blot probed with ^32 P-labeled cDNA to […] rRNA is shown. The cut leaves are from a control plant (lanes 1 and 2) or from a plant transgenic for human RNase L cDNA (lanes 3 and 4). The presence or absence of 2-5A and the position of the 2-5A-mediated rRNA cleavage products are shown.\nLeaves from control and transgenic plants are cut and allowed to take up 2-5A [1 μM of p3 (A2'p)3 A] through the petiole for about seven hours at room temperature under fluorescent light. Total RNA is prepared and used to prepare northern blots. THe RNA in the blots is hybridized to a ^32 P labeled human 18S rRNA cDNA probe (the cDNA is provided by Dr. John Thaden, Baltimore).\nTo monitor uptake of 2-5A, leaves are cut at the base of the petiole and then placed in a solution of ^32 P-labeled 2-5A probe for about three hours at room temperature under light. The petiole was cut further and autoradiograms were made from the lamina. Uptake and translocation of the 2-5A probe is readily apparent through veins to all parts of lamina (data now shown). Catalytic activity of RNase L in the intact leaves is determined after allowing unlabeled 2-5A, p3 A(2'p5'A)3 (1 μM), to be taken up by cut leaves for seven hours. […]"}, "RNase L [3]": {"test_system": "RNase L", "assay": "2-5A injection into detached leaves, 18S rRNA northern blot", "type": "cell-based, transgenic tobacco", "conditions": "about 2.5 μM injected, about 3 hrs; not in control or synthetase-only plants", "method": "FIG. 24. […] Leaves are injected with about 2.5 μM 2-5A, total RNA is extracted after 3 hr and probed with ^32 P-labeled 18S cDNA. Lanes 1-2, control plant, lanes 3 and 4, plant expressing only 2-5A synthetase (Syn); lane 5, plant expressing only RNase L (RL); lanes 6-7, plants expressing both 2-5A synthetase and RNase L (Syn+RL).\nFunctional expression of RNase L in transgenic tobacco plants is detected by 2-5A-induced breakdown of 18S ribosomal RNA (rRNA) in detached leaves that are injected with 2-5A. Transgenic leaves are injected with about 2.5 μM p3 A(2'p5'A)3 and are incubated for about 3 hrs before total RNA is prepared. […] In addition, plants expressing RNase L are believed to have specific 2-5A binding activity that is absent in control, non-transgenic plants."}, "2-5A-dependent RNase [4]": {"test_system": "2-5A-dependent RNase", "conditions": "cited from earlier work"}, "2-5A-dependent RNase [5]": {"test_system": "2-5A-dependent RNase", "conditions": "depending on the cell type; cited from earlier work"}, "32P-2-5A probe": {"test_system": "32P-2-5A probe", "assay": "2-5A probe crosslinking to lysine to asparagine mutants, phosphorimager analysis", "type": "binding", "conditions": "uv crosslinking, phosphorimager analysis of dried gel"}},
  "data": [
    {"molecule": "pA(2'p5'A)3", "values": [
      {"measurement": "activation of RNase L to cleave poly(U)", "setting": "[1]", "value": "production of discrete poly (U) cleavage products"}
    ]},
    {"molecule": "p3 A(2'p5'A)3", "values": [
      {"measurement": "degradation of 18S rRNA in RNase L expressing plants", "setting": "RNase L [2]", "value": "induce degradation of the 18S rRNA to discrete cleavage products"},
      {"measurement": "degradation of rRNA in plants expressing RNase L", "setting": "RNase L [3]", "value": "degradation of rRNA"}
    ]},
    {"molecule": "Nc1ncnc2c1ncn2[C@@H]1O[C@H](COP(=O)(O)OP(=O)(O)OP(=O)(O)O)[C@@H](O)[C@H]1O", "note": "[ATP]", "values": [
      {"measurement": "stimulatory effect on 2-5A-dependent RNase activity", "setting": "2-5A-dependent RNase [4]", "value": "two-fold"}
    ]},
    {"molecule": "interferon", "values": [
      {"measurement": "enhancement of levels of 2-5A-dependent RNase", "setting": "2-5A-dependent RNase [5]", "value": "two- to twenty-fold"}
    ]},
    {"molecule": "ZB1(Lys^240,274 →Asn): clone ZB1 double mutant, lysines 240 and 274 mutated to asparagine (protein, UniProt Q05921 1-735, looked up, variant K240N K274N) 2-5A-dependent ribonuclease: METPDYNTPQGGTPSAGSQRTVVEDDSSLIKAVQKGDVVRVQQLLEKGADANACEDTWGWTPLHNAVQAGRVDIVNLLLSHGADPHRRKKNGATPFIIAGIQGDVKLLEILLSCGADVNECDENGFTAFMEAAERGNAEALRFLFAKGANVNLRRQTTKDKRRLKQGGATALMSAAEKGHLEVLRILLNDMKAEVDARDNMGRNALIRTLLNWDCENVEEITSILIQHGADVNVRGERGNTPLIAAVERKHTGLVQMLLSREGINIDARDNEGNTALLIAVDKQLKEIVQLLLEKGADKCDDLVWIARRNHDYHLVKLLLPYVANPDTDPPAGDWSPHSSRWGTALKSLHSMTRPMIGKLKIFIHDDYKIAGTSEGAVYLGIYDNREVAVKVFRENSPRGCKEVSCLRDCGDHSNLVAFYGREDDKGCLYVCVSLCEWTLEEFLRLPREEPVENGEDKFAHSILLSIFEGVQKLHLHGYSHQDLQPQNILIDSKKAVRLADFDQSIRWMGESQMVRRDLEDLGRLVLYVVMKGEIPFETLKTQNDEVLLTMSPDEETKDLIHCLFSPGENVKNCLVDLLGHPFFWTWENRYRTLRNVGNESDIKVRKCKSDLLRLLQHQTLEPPRSFDQWTSKIDKNVMDEMNHFYEKRKKNPYQDTVGDLLKFIRNIGEHINEEKKRGMKEILGDPSRYFQETFPDLVIYIYKKLKETEYRKHFPQPPPRLSVPEAVGPGGIQS", "values": [
      {"measurement": "2-5A binding activity, % of clone ZB1", "setting": "32P-2-5A probe", "value": 12.2, "unit": "%"}
    ]}
  ]
}
